In patent US20100204181A1, “N-HALOGENATED AMINO ACID FORMULATIONS COMPRISING PHOSPHINE OR AMINE OXIDES” (ALCON RESEARCH, LTD., priority 2009, published 2010):

Assays:
S. aureus = assay: Viable cells per mL of S. aureus after treatment; type: cell-based; conditions: 5 minutes after treatment
Description: As shown above in Table 1, there were only 24 viable cells per mL measured 5 minutes after treatment with 0.001% N,N-dichloro-2,2-dimethyltaurine formulated with acetate buffer at pH 4. In contrast, there were 27429 and 910 viable cells per mL 5 minutes after treatment with a 0.001% N,N-dichloro-2,2-dimethyltaurine formulation comprising no buffer and adipic acid buffer, respectively.

[1] = Chemical stability of N,N-dichloro-2,2-dimethyltaurine solution with and without TBPO or TMAO; type: physicochemical
Text: FIG. 1 is a graph showing the stability of a 0.1 w/v % solution of N,N-dichloro-2,2-dimethyltaurine with and without 0.01 w/v % TBPO; and
FIG. 2 is a graph showing the stability of a 0.11 w/v % solution of N,N-dichloro-2,2-dimethyltaurine with and without 0.037 w/v % TMAO.
The present inventors have discovered that the antimicrobial activity of N-halogenated amino acid compounds is enhanced in a formulation comprising a phosphine oxide or amine oxide compound. The enhancement is synergistic, as the phosphine oxide and amine oxide compounds tested have no intrinsic antimicrobial activity. Also the increase in antimicrobial activity of the N-halogenated amino acid compound in the presence of a phosphine oxide and/or amine oxide compound is likely not due to a chemical reaction that generates a new and more reactive chemical species.

SMILES: CC(C)(CS(=O)(=O)O)N(Cl)Cl [N,N-dichloro-2,2-dimethyltaurine]
- viable cells per mL (S. aureus; 0.001% formulated with acetate buffer at pH 4): 24 cells per mL
- viable cells per mL (S. aureus; 0.001% formulation, adipic acid buffer): 910 cells per mL
- viable cells per mL (S. aureus; 0.001% formulation, no buffer): 27429 cells per mL
- chemical stability ([1]; 0.1 w/v % solution with and without 0.01 w/v % TBPO (FIG. 1)): not affected
- chemical stability ([1]; 0.11 w/v % solution with and without 0.037 w/v % TMAO (FIG. 2)): not affected
